# Assay results taken from ChEMBL document CHEMBL1137587, “MCH-R1 antagonists based on an arginine scaffold: SAR studies on the amino-terminus” (Bioorg Med Chem Lett, 2007).
# pIC50: −log10 of the molar value.
# Biological target: Melanin-concentrating hormone receptor 1 (Homo sapiens, UniProt Q99705)
# Assay: Functional antagonism of MCH-R1 expressed in HEK293 cells
# Format: cell-based
# Chain of Melanin-concentrating hormone receptor 1 (Q99705 whole entry): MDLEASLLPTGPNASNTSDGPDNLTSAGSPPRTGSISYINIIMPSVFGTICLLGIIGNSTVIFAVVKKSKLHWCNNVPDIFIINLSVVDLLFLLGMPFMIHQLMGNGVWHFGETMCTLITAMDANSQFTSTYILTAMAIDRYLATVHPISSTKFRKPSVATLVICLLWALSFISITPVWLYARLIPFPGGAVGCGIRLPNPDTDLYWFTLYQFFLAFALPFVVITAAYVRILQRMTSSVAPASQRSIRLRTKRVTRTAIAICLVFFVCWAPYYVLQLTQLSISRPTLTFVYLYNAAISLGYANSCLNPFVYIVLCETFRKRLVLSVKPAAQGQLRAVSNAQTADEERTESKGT
row,SMILES,pIC50
1,N=C(N)NCCC[C@@H](NC(=O)c1cccc2ccccc12)C(=O)NCc1ccc(C(F)(F)F)cc1,5.75
2,N=C(N)NCCC[C@@H](NC(=O)c1cc2ccccc2o1)C(=O)NCc1ccc(C(F)(F)F)cc1,6.50
3,N=C(N)NCCC[C@@H](NC(=O)C(c1ccccc1)c1ccccc1)C(=O)NCc1ccc(C(F)(F)F)cc1,6.95
4,N=C(N)NCCC[C@@H](NC(=O)c1ccnc2ccccc12)C(=O)NCc1ccc(C(F)(F)F)cc1,5.99
5,N=C(N)NCCC[C@@H](NC(=O)c1cc2ccccc2[nH]1)C(=O)NCc1ccc(C(F)(F)F)cc1,7.70
6,N=C(N)NCCC[C@@H](NC(=O)C1c2ccccc2Oc2ccccc21)C(=O)NCc1ccc(C(F)(F)F)cc1,8.40
7,N=C(N)NCCC[C@@H](NC(=O)Cc1cccc2ccccc12)C(=O)NCc1ccc(C(F)(F)F)cc1,6.61
8,COc1ccc2[nH]c(C(=O)N[C@H](CCCNC(=N)N)C(=O)NCc3ccc(C(F)(F)F)cc3)cc2c1,7.11
9,N=C(N)NCCC[C@@H](NC(=O)Cc1csc2ccccc12)C(=O)NCc1ccc(C(F)(F)F)cc1,6.00
10,COc1ccc2cc(C(=O)N[C@H](CCCNC(=N)N)C(=O)NCc3ccc(C(F)(F)F)cc3)ccc2c1,6.35
11,N=C(N)NCCC[C@@H](NC(=O)C1c2ccccc2Cc2ccccc21)C(=O)NCc1ccc(C(F)(F)F)cc1,6.12
12,N=C(N)NCCC[C@@H](NC(=O)c1cc2ccccc2s1)C(=O)NCc1ccc(C(F)(F)F)cc1,7.35
13,N=C(N)NCCC[C@@H](NC(=O)c1cc2cc(F)ccc2[nH]1)C(=O)NCc1ccc(C(F)(F)F)cc1,7.60
14,N=C(N)NCCC[C@@H](NC(=O)c1ccc2ccccc2c1)C(=O)NCc1ccc(C(F)(F)F)cc1,6.67
15,N=C(N)NCCC[C@@H](NC(=O)c1cc2ccccc2cn1)C(=O)NCc1ccc(C(F)(F)F)cc1,5.74
16,N=C(N)NCCC[C@@H](NC(=O)Cc1cc2ccccc2[nH]1)C(=O)NCc1ccc(C(F)(F)F)cc1,6.29
17,N=C(N)NCCC[C@@H](NC(=O)c1csc2ccccc12)C(=O)NCc1ccc(C(F)(F)F)cc1,6.02
18,COc1cccc2cc(C(=O)N[C@H](CCCNC(=N)N)C(=O)NCc3ccc(C(F)(F)F)cc3)oc12,6.21
19,N=C(N)NCCC[C@@H](NC(=O)c1cnc2ccccc2c1)C(=O)NCc1ccc(C(F)(F)F)cc1,7.02
20,N=C(N)NCCC[C@@H](NC(=O)C1c2ccccc2-c2ccccc21)C(=O)NCc1ccc(C(F)(F)F)cc1,8.30
21,N=C(N)NCCC[C@@H](NC(=O)c1ccc2ccccc2n1)C(=O)NCc1ccc(C(F)(F)F)cc1,6.04
22,N=C(N)NCCC[C@@H](NC(=O)c1ccc(F)c2ccccc12)C(=O)NCc1ccc(C(F)(F)F)cc1,6.51
